Values after ≈ are worked out from the molar mass of the structure shown.

Test systems include Pseudomonas aeruginosa; Staphylococcus aureus; Bacillus subtilis 168; Escherichia coli B; Escherichia coli UB1005; Escherichia coli BW25113.
What all share (test): ≥ marks a high value that may be exact or a test limit, other limits are often not marked, values filed in µg/mL are converted to µM
Experiment [1] has as its system Staphylococcus aureus ATCC 6538.
In experiment [2] the test system is Bacillus subtilis ATCC 6633.
Experiment [3] deals with Escherichia coli ATCC 8739.
For experiment [4], the system named is Staphylococcus aureus ATCC 43300.
Experiment [5] concerns Micrococcus luteus CCM 144.
Experiment [6] deals with Candida albicans F7-39/IDE99.
Experiment [7] concerns Staphylococcus epidermidis.
The test system of experiment [8] is Pseudomonas aeruginosa ATCC 27853.
Experiment [9] deals with Candida albicans ATCC 90028.
For experiment [10], the system named is Salmonella enterica subsp. enterica serovar Typhimurium ATCC 14028.
Experiment [11] deals with Enterococcus faecalis ATCC 29212.
The subject of experiment [12] is Salmonella enterica subsp. enterica serovar Pullorum C79-13.
Experiment [13] concerns Salmonella enterica subsp. enterica serovar Typhimurium C77-31.
The test system of experiment [14] is Staphylococcus epidermidis ATCC 12228.
For experiment [15], the system named is Escherichia coli ATCC 25922.
The test system of experiment [16] is Staphylococcus aureus ATCC 29213.

Take `CC[C@H](C)[C@H](NC(=O)CN)C(=O)N[C@@H](Cc1ccccc1)C(=O)N[C@@H](CO)C(=O)N[C@@H](CCCCN)C(=O)N[C@@H](Cc1ccccc1)C(=O)N[C@@H](C)C(=O)NCC(=O)N[C@@H](CCCCN)C(=O)NCC(=O)N[C@H](C(=O)N[C@@H](CCCCN)C(=O)N[C@@H](CC(N)=O)C(=O)N[C@@H](CC(C)C)C(=O)N[C@@H](CC(C)C)C(=O)N[C@H](C(=O)N[C@@H](CCCCN)C(=O)NCC(=O)N[C@H](C(=O)N[C@@H](CCCCN)C(=O)N[C@@H](CC(N)=O)C(=O)N[C@H](C(=O)NCC(=O)N[C@@H](CCCCN)C(=O)N[C@@H](CCC(=O)O)C(=O)N[C@H](C(=O)NCC(=O)N[C@@H](CCSC)C(=O)N[C@@H](CC(=O)O)C(=O)N[C@H](C(=O)N[C@H](C(=O)N[C@@H](CCCN=C(N)N)C(=O)N[C@H](C(=O)NCC(=O)N[C@H](C(=O)N[C@@H](CC(=O)O)C(=O)N[C@H](C(=O)N[C@@H](C)C(=O)NCC(=O)N[C@H]1CSSC[C@@H](C(=O)O)NC(=O)[C@H](CCC(=O)O)NC(=O)CNC(=O)[C@H](CCCCN)NC(=O)[C@H]([C@@H](C)CC)NC(=O)[C@H](CCCCN)NC1=O)[C@@H](C)CC)[C@@H](C)CC)[C@@H](C)O)[C@@H](C)CC)C(C)C)C(C)C)[C@@H](C)CC)C(C)C)C(C)C)[C@@H](C)CC` [GIFSKFAGKGIKNLLVKGVKNIGKEVGMDVIRTGIDIAGCKIKGEC]: the minimal inhibitory concentration (MIC) (in general, the lowest concentration that inhibits growth of the organism) was determined as 3.1 µM (≈ 14.9 µg/mL) in [1], 25 µM (≈ 120 µg/mL) in [2], 6.3 µM (≈ 30.3 µg/mL) in experiment [3] and 25 µM (≈ 120 µg/mL) in experiment [4].
`CC[C@H](C)[C@H](NC(=O)CN)C(=O)N[C@@H](CC(C)C)C(=O)N[C@@H](CO)C(=O)N[C@@H](CO)C(=O)N[C@@H](CC(C)C)C(=O)N[C@@H](Cc1c[nH]c2ccccc12)C(=O)N[C@@H](CCCCN)C(=O)N[C@@H](CCCCN)C(=O)N1CCC[C@H]1C(=O)N[C@@H](CCCCN)C(=O)N[C@@H](CCCCN)C(=O)N[C@H](C(=O)N[C@H](C(=O)N[C@@H](C)C(=O)N[C@@H](CCCCN)C(N)=O)[C@@H](C)CC)[C@@H](C)CC` [GILSSLWKKPKKIIAK]: the MIC with Pseudomonas aeruginosa was > 100 µM; in [5], 5.8 µM (≈ 10.5 µg/mL); in experiment [6], ≥ 100 µM; in experiment [4], > 100 µM; against Staphylococcus aureus, > 100 µM; in experiment [7], ≥ 100 µM. Also, the values for the MIC (in the experiment on Bacillus subtilis 168; against Escherichia coli B; in [8]) were ≥ 49 µM, ≥ 100 µM and 98 µM (≈ 177 µg/mL), respectively.
As for `CC[C@H](C)[C@H](NC(=O)CN)C(=O)N[C@@H](CC(C)C)C(=O)N[C@@H](CO)C(=O)N[C@H](C(=O)N[C@H](C(=O)N[C@@H](Cc1ccccc1)C(=O)N[C@@H](CCCCN)C(=O)N[C@@H](C)C(=O)NCC(=O)N[C@@H](CCCCN)C(=O)NCC(=O)N[C@H](C(=O)N[C@H](C(=O)N[C@H]1CSSC[C@@H](C(=O)O)NC(=O)[C@H](CC(C)C)NC(=O)CNC(=O)[C@H](CO)NC(=O)[C@H](CC(C)C)NC(=O)CNC1=O)C(C)C)[C@@H](C)CC)C(C)C)[C@@H](C)O` [GILSTVFKAGKGIVCGLSGLC], the minimum inhibitory concentration (MIC) in experiment [9] was ≥ 100 µM; in experiment [1] it was 3.1 µM (≈ 6.27 µg/mL); in [2] it was 12.5 µM (≈ 25.3 µg/mL); in experiment [3], ≥ 50 µM; in experiment [4], 25 µM (≈ 50.5 µg/mL).
Regarding `CC[C@H](C)[C@H](NC(=O)CN)C(=O)N[C@@H](CCSC)C(=O)N[C@@H](CO)C(=O)N[C@@H](CO)C(=O)N[C@@H](CC(C)C)C(=O)N[C@@H](CCSC)C(=O)N[C@@H](CCCCN)C(=O)N[C@@H](CCCCN)C(=O)N[C@@H](CC(C)C)C(=O)N[C@@H](C)C(=O)N[C@@H](C)C(=O)N[C@H](C(=O)N[C@H](C(=O)N[C@@H](C)C(=O)N[C@@H](CCCCN)C(N)=O)[C@@H](C)CC)[C@@H](C)CC` [GIMSSLMKKLAAIIAK], the minimal inhibitory concentration (MIC) against Pseudomonas aeruginosa turned out to be 17 µM (≈ 28.5 µg/mL); in [5], 3 µM (≈ 5.02 µg/mL); in [6], 8.4 µM (≈ 14.1 µg/mL); in experiment [4] it was 7.2 µM (≈ 12.1 µg/mL); with Staphylococcus aureus it was 10 µM (≈ 16.7 µg/mL); in experiment [7], 5 µM (≈ 8.37 µg/mL). For the same compound, the MIC against Bacillus subtilis 168 stood at 7 µM (≈ 11.7 µg/mL); against Escherichia coli B it was 3.6 µM (≈ 6.03 µg/mL); in experiment [8], 8 µM (≈ 13.4 µg/mL).
With `CC[C@H](C)[C@H](NC(=O)[C@H](CC(C)C)NC(=O)[C@H](CCCCN)NC(=O)[C@@H](NC(=O)[C@@H](NC(=O)[C@H](CCCCN)NC(=O)[C@@H]1CCCN1C(=O)[C@H](CC(C)C)NC(=O)[C@@H](NC(=O)[C@H](CCCCN)NC(=O)[C@H](C)NC(=O)[C@H](CC(C)C)NC(=O)[C@H](CC(C)C)NC(=O)[C@H](CO)NC(=O)[C@H](C)NC(=O)[C@H](CCSC)NC(=O)CN)C(C)C)C(C)C)C(C)C)C(=O)N[C@@H](CCCCN)C(=O)O` [GMASLLAKVLPKVVKLIK], the minimum inhibitory concentration (MIC) stood at 47.5 µM (≈ 90.7 µg/mL) in the experiment with Pseudomonas aeruginosa; 1.2 µM (≈ 2.29 µg/mL) in experiment [5]; 12.1 µM (≈ 23.1 µg/mL) in experiment [6]; 3.5 µM (≈ 6.68 µg/mL) against Staphylococcus aureus; 3.4 µM (≈ 6.49 µg/mL) in the experiment on Bacillus subtilis 168; 1.8 µM (≈ 3.44 µg/mL) in the experiment on Escherichia coli B.
Regarding `CC[C@H](C)[C@H](NC(=O)[C@H](CCCCN)NC(=O)[C@H](CCCCN)NC(=O)[C@H](Cc1ccccc1)NC(=O)[C@H](CC(C)C)NC(=O)[C@H](CCCCN)NC(=O)[C@H](Cc1c[nH]c2ccccc12)NC(=O)[C@@H](N)CCCCN)C(=O)N[C@@H](CCCN=C(N)N)C(=O)N[C@@H](Cc1ccccc1)C(=O)NCC(=O)N[C@@H](CCCN=C(N)N)C(=O)N[C@@H](Cc1ccccc1)C(=O)N[C@@H](CC(C)C)C(=O)N[C@@H](CCCN=C(N)N)C(=O)N[C@@H](CCCCN)C(=O)N[C@H](C(=O)N[C@@H](CCCN=C(N)N)C(=O)N[C@@H](CCCN=C(N)N)C(=O)N[C@@H](Cc1ccccc1)C(=O)N[C@@H](CCCN=C(N)N)C(=O)N1CCC[C@H]1C(=O)N[C@@H](CCCCN)C(N)=O)[C@@H](C)CC` [KWKLFKKIRFGRFLRKIRRFRPK], the minimum inhibitory concentration (MIC) in experiment [10] was 4 µM (≈ 12.4 µg/mL); with Escherichia coli UB1005, 2 µM (≈ 6.21 µg/mL); in [11], 4 µM (≈ 12.4 µg/mL); in [12], 8 µM (≈ 24.8 µg/mL); in experiment [13] it was 4 µM (≈ 12.4 µg/mL); in [14], 4 µM (≈ 12.4 µg/mL). For the same compound, the MIC in [8] is 4 µM (≈ 12.4 µg/mL).
Take `CC[C@H](C)[C@H](NC(=O)[C@H](C)NC(=O)CNC(=O)[C@H](CCCCN)NC(=O)[C@H](CC(N)=O)NC(=O)[C@@H](N)CC(C)C)C(=O)N[C@@H](CC(C)C)C(=O)N[C@@H](CCCCN)C(=O)N[C@@H](Cc1cnc[nH]1)C(=O)N[C@H](C(=O)N[C@H](C(=O)N[C@@H](CCCCN)C(N)=O)[C@@H](C)CC)[C@@H](C)CC` [LNKGAILKHIIK]: the MIC against Pseudomonas aeruginosa is > 100 µM; in experiment [5], ≥ 100 µM; in experiment [6], ≥ 100 µM; against Staphylococcus aureus, > 100 µM; in the experiment on Bacillus subtilis 168, ≥ 65 µM; in the experiment with Escherichia coli B, ≥ 100 µM.
For `CC(C)C[C@H](NC(=O)[C@@H](NC(=O)[C@@H](NC(=O)[C@@H](N)CC(C)C)C(C)C)[C@@H](C)O)C(=O)N[C@H](C(=O)N[C@@H](Cc1ccccc1)C(=O)N[C@H](C(=O)NCC(=O)NCC(=O)NCC(=O)N[C@@H](Cc1c[nH]c2ccccc12)C(=O)N[C@@H](CCCCN)C(=O)N[C@@H](Cc1c[nH]c2ccccc12)C(=O)N[C@@H](CCCCN)C(=O)N[C@@H](Cc1c[nH]c2ccccc12)C(=O)N[C@@H](CCC(=O)O)C(=O)N[C@@H](CC(N)=O)C(=O)NCC(=O)N[C@@H](CCCCN)C(=O)N[C@@H](Cc1c[nH]c2ccccc12)C(=O)N[C@@H](CCCCN)C(=O)N[C@@H](Cc1c[nH]c2ccccc12)C(=O)N[C@@H](CCC(N)=O)C(=O)N[C@@H](Cc1c[nH]c2ccccc12)C(=O)O)C(C)C)C(C)C` [LVTLVFVGGGWKWKWENGKWKWQW], the MIC in [15] is > 128 µM; in experiment [11] it was > 128 µM; in experiment [12] it was ≥ 128 µM; in experiment [13], ≥ 128 µM; in experiment [16], > 128 µM; in experiment [14], > 128 µM.
With `CC[C@H](C)[C@H](NC(=O)[C@@H]1CCCN1C(=O)[C@@H]1CCCN1C(=O)[C@H](CCCN=C(N)N)NC(=O)[C@H](CCCN=C(N)N)NC(=O)[C@H](Cc1c[nH]c2ccccc12)NC(=O)[C@@H]1CCCN1C(=O)[C@@H]1CCCN1C(=O)[C@H](CCCN=C(N)N)NC(=O)[C@H](Cc1ccccc1)NC(=O)[C@@H](N)CCCN=C(N)N)C(=O)N[C@@H](CCCN=C(N)N)C(=O)N1CCC[C@H]1C(=O)N1CCC[C@H]1C(=O)N[C@@H](Cc1ccccc1)C(=O)N[C@@H](Cc1ccc(O)cc1)C(=O)N1CCC[C@H]1C(=O)O` [RFRPPWRRPPIRPPFYP], the MIC against Escherichia coli BW25113 was determined as 8 µM (≈ 17.9 µg/mL).
